Values joined by “and” are separate entries in the source; they are usually repeats but may differ in a detail not shown here. Equal values may be shown once. Read-outs that look alike come from different tables or passages of the source.

For experiment [1], the target named is T1, hP2Y14R (Homo sapiens, UniProt Q15391).
T1 construct: expressed in transfected cells
T1 sequence (Q15391 1-338): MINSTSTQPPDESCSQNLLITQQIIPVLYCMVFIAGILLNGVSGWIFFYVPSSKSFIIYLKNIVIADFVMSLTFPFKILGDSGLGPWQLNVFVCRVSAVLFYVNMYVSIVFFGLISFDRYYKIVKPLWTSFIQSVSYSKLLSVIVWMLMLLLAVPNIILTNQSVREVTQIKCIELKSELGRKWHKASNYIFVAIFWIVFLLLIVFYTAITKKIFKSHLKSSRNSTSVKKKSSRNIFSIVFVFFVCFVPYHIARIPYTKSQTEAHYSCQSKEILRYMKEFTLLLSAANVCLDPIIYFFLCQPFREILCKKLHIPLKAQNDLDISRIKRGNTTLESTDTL
Also noted: method as in PMID 28527783, PMID 23235874. To be noted: previous members of the series; ref [29],[43]; cited from earlier work.

Experiment [2] deals with other P2YRs. The conditions noted are these: at high µM concentrations; ref [29],[43]; cited from earlier work.
The target of experiment [3] is T2, hP2Y6R (Homo sapiens, UniProt Q15077).
T2 construct: expressed in transfected cells
T2 sequence (Q15077 whole entry): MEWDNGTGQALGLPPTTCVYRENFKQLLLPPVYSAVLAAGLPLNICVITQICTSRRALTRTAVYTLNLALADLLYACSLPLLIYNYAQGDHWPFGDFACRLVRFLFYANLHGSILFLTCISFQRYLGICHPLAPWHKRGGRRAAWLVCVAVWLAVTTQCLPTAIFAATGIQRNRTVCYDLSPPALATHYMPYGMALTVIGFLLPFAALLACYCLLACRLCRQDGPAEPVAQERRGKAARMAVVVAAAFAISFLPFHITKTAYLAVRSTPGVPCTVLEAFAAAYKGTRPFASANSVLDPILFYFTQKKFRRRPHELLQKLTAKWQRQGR
In words: UDP (100 nM)-induced Ca2+ mobilization in hP2Y6R stably transfected 1321N1 astrocytoma cells. In kind it is cell-based. To be noted: UDP 100 nM; for IC50: 3–4 independent triplicate determinations. On the procedure: To screen for P2Y6R antagonist activity, PLC-mediated calcium mobilization assays were carried out using the recombinant human P2Y6R stably expressed in 1321N1 astrocytoma cells (hP2Y6R-1321N1) according to the previously published method. Briefly, the hP2Y6R-1321N1 cells were seeded on 96-well black plates and incubated overnight. The antagonists were pretreated along with the FLIPR dye (Calcium 6 assay kit, Molecular Devices, San Jose, CA, USA) containing 5 mM probenecid for 45 min, prior to agonist addition followed by an immediate intracellular Ca^2+ measurement. […] Here, probenecid was used as an organic anion transporter inhibitor to prevent the efflux of the dye into the extracellular environment. During incubation, the membrane permeable dye enters the cytoplasm and cleaves the acetoxymethyl protection to enable Ca^2+ binding. When the P2Y6R was activated by UDP, the increased calcium concentration was directly measured by intracellular changes in the fluorescence intensity with a Fluorescent Imaging Plate Reader (FLIPR^TETRA, Molecular Devices, San Jose, CA, USA).

Experiment [4] concerns the target T3, α2A (Homo sapiens, UniProt P08913).
T3 construct: NIMH Psychoactive Drug Screening Program (PDSP)
T3 sequence (P08913 1-465): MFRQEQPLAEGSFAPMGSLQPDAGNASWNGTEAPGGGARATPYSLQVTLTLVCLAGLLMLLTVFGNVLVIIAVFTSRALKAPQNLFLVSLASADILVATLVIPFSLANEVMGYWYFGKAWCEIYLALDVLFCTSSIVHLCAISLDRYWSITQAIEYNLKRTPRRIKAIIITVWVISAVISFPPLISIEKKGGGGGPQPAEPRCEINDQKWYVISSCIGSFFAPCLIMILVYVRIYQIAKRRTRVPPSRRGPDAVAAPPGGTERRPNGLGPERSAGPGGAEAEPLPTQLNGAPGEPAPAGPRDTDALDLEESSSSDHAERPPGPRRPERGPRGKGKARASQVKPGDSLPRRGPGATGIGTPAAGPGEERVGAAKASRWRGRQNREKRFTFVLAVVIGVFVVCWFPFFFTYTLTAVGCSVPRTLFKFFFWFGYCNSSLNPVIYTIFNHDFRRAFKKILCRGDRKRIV
In words: PDSP binding assay, α2A. The conditions noted are these: PDSP, mean, n = 2; read-out: Ki, α2A. From the text:
(§1) Table S2. Off-target screening (to replace table later). We thank Dr. Bryan L. Roth (Univ. North Carolina at Chapel Hill) and National Institute of Mental Health's Psychoactive Drug Screening Program (Contract # HHSN-271-2008-00025-C) for screening data. Reference: Besnard et al.
(§2) Procedures: https://pdsp.unc.edu/pdspweb/content/UNC-CH%20Protocol%20Book.pdf […]
(§3) nucleosides were found at the following sites (human unless noted): 5HT1A, 5HT1B, 5HT1D, […]
(§4) β3, BZP rat brain site, D1, D2, D3, D4, D5, GABAA, H1, H2, H3, H4, M1, M2, M5, δ-opioid receptor (DOR), κ-opioid receptor (KOR), μ-opioid receptor (MOR), σ1, σ2, DAT, NET, SERT. Ki values […]
(§5) Compound # PDSP # Receptor LogKi Ki (nM)

In experiment [5] the target is T4, D5 (Homo sapiens, UniProt P21918).
T4 construct: NIMH Psychoactive Drug Screening Program (PDSP)
T4 sequence (P21918 whole entry): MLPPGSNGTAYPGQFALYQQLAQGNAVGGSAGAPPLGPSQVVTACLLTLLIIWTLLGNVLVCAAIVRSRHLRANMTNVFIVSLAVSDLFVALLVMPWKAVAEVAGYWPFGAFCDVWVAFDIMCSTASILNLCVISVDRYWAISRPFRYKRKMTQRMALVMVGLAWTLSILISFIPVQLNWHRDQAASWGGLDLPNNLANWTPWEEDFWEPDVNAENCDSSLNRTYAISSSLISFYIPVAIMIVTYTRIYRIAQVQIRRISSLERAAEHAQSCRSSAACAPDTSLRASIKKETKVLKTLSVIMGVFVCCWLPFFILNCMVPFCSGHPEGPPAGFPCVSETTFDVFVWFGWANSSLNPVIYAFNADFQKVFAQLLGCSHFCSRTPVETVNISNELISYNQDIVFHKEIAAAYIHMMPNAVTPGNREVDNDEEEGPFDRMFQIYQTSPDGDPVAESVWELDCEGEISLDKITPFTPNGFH
As to the kind of experiment: PDSP binding assay, D5. The conditions noted are these: PDSP, mean, n = 2; read-out: Ki, D5.
Source text: as §1, §2, §3, §4, §5

In experiment [6] the target is T5, α2B (Homo sapiens, UniProt P18089).
T5 construct: NIMH Psychoactive Drug Screening Program (PDSP)
T5 sequence (P18089 1-450): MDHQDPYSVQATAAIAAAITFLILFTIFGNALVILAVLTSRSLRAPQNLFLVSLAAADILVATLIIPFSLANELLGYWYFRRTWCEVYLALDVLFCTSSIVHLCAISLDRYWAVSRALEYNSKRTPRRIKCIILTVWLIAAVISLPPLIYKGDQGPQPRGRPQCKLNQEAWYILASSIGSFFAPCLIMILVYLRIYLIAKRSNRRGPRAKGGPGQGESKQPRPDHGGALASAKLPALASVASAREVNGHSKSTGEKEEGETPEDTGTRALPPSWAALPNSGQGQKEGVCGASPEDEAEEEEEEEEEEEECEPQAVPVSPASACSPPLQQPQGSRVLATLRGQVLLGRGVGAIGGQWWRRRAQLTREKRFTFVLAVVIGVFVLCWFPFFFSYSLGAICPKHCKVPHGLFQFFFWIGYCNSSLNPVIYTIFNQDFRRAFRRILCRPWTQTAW
In words: PDSP binding assay, α2B. To be noted: mean, n = 2.
Source text: as §1, §2, §3, §4, §5

Experiment [7] deals with T6, 5-HT1D (Homo sapiens, UniProt P28221).
T6 construct: NIMH Psychoactive Drug Screening Program (PDSP)
T6 sequence (P28221 whole entry): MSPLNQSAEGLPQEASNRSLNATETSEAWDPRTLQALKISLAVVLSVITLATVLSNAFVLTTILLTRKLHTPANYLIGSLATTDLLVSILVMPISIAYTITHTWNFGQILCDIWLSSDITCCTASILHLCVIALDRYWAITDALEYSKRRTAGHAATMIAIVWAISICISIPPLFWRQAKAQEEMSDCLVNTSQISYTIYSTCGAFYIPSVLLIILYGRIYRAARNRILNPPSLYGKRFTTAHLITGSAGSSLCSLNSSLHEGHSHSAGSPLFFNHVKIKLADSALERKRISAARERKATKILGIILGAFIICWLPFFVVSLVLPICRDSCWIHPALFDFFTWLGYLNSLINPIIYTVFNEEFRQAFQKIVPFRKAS
In words: PDSP binding assay, 5-HT1D. To be noted: PDSP, mean, n = 2; read-out: Ki, 5-HT1D.
Source text: as §1, §2, §3, §4, §5

Experiment [8] has as its system hP2Y6R-1321N1 human astrocytoma cells. As to the kind of experiment: MTT cell viability assay, hP2Y6R-1321N1 astrocytoma cells. In kind it is cell-based. The conditions noted are these: P2Y6R-astrocytoma, 12 h, MTT. On the procedure:
(§6) The 1321N1 astrocytoma (hP2Y6R-overexpressing) and HeLa (non-transfected) cell lines were cultured in Dulbecco’s modified Eagle’s medium (DMEM, HyClone, Logan, UT, USA) supplemented with 5% heat-inactivated fetal bovine serum (FBS, HyClone, UT, USA), 100 U/mL penicillin, and 100 µg/mL streptomycin in 5% CO2 at 37 °C. The cell viability was determined using an MTT kit (Sigma, St. Louis, MO, USA) according to the manufacturer’s instructions. Briefly, 1 × 10^4 cells were seeded in triplicate in 96-well plates. The hP2Y6R-astrocytoma and HeLa cells were treated with a P2Y6R agonist and antagonists at a range of concentrations and incubated for 12 h. The cell viability was measured at 490 nm using a SpectraMax-M5 Spectrometer (Molecular Devices, San Jose, CA, USA).
(In general: Formazan colour is commonly taken as a measure of viable cells.)

Experiment [9] has as its system HeLa cells. As to the kind of experiment: MTT cell viability assay, HeLa cells. Type of experiment: cell-based, human. The conditions noted are these: 12 h, MTT. The procedure: as §6
[10] abbreviates: read-out: IC50, hP2Y6R (Mean ± SEM).

Regarding `O=[N+]([O-])C1=Cc2ccccc2OC1C(F)(F)F` (centres unmarked) [Compound 2a, reference compound], the “hP2Y14R binding” value in experiment [1] was “inactive”. Further, the inhibition – broadly, how much of the control response was suppressed – at most other P2YRs in [2] is “minor”. For the same compound, the IC50 (in general, the point on the concentration scale where inhibition reaches its midpoint) in experiment [3] (setting [10]) is 2.91 ± 1.21 µM.
In the case of `CC(C)(C)n1nc(-c2nc3cc(Cl)ccc3[nH]2)cc1-c1ccco1` [Compound 4, reference compound], the inhibition at 100 µM in experiment [3] (1321-N1, at 100 µM) worked out at 18.9 ± 8.5%. The same compound registered an IC50 in experiment [3] (IC50, hP2Y6R (Mean ± SEM)) greater than 100 µM.
Regarding `O=[N+]([O-])C1=Cc2ccc(Cl)cc2OC1C(F)(F)F` (centres unmarked) [Compound 7], the “hP2Y14R binding” value in experiment [1] is “inactive”.
For `O=[N+]([O-])C1=Cc2cccc(Cl)c2OC1C(F)(F)F` (centres unmarked) [Compound 8], the “hP2Y14R binding” value in [1] was “inactive”.
Regarding `CC[Si](C#Cc1cccc2c1OC(C(F)(F)F)C([N+](=O)[O-])=C2)(CC)CC` (centres unmarked) [Compound 14], the “inhibition at most other P2YRs” value in [2] is “minor”.
In the case of `O=[N+]([O-])C1=Cc2cc(C#Cc3ccc(O)cc3)ccc2OC1C(F)(F)F` (centres unmarked) [Compound 15], the “hP2Y14R binding” value in experiment [1] was “inactive”.
With `O=[N+]([O-])C1=Cc2cc(C#Cc3ccc(CO)cc3)ccc2OC1C(F)(F)F` (centres unmarked) [Compound 16], the “hP2Y14R binding” value in [1] was “inactive”.
As to `O=[N+]([O-])C1=Cc2cc(C#CCCCCCCCCBr)ccc2OC1C(F)(F)F` (centres unmarked) [Compound 19], the IC50 in experiment [3] (setting [10]) stood at 14 ± 4.7 µM.
`CC(C)(C)OC(=O)NCCC#Cc1ccc2c(c1)C=C([N+](=O)[O-])C(C(F)(F)F)O2` (centres unmarked) [Compound 20]: the results for the Ki in experiment [4] and in experiment [5] were 1.6 µM and 4.4 µM, respectively. For the same compound, in experiment [3] (setting [10]), the IC50 came out at 0.587 ± 0.087 µM.
For `NCCC#Cc1ccc2c(c1)C=C([N+](=O)[O-])C(C(F)(F)F)O2` (centres unmarked) [Compound 21], in experiment [3] (setting [10]), the IC50 came to 22.6 ± 9.3 µM.
Turning to `CC(C)(C)OC(=O)NCCCC#Cc1ccc2c(c1)C=C([N+](=O)[O-])C(C(F)(F)F)O2` (centres unmarked) [Compound 22], the IC50 in [3] (setting [10]) came to 1.87 ± 0.11 µM.
Take `NCCCC#Cc1ccc2c(c1)C=C([N+](=O)[O-])C(C(F)(F)F)O2` (centres unmarked) [Compound 23]: in experiment [3] (setting [10]), the IC50 is 9.98 ± 1.37 µM.
Consider `NCCCCC#Cc1ccc2c(c1)C=C([N+](=O)[O-])C(C(F)(F)F)O2` (centres unmarked) [Compound 25], for which the IC50 in experiment [3] (setting [10]) was found to be 5.39 ± 1.49 µM.
For the compound `CC(C)(C)OC(=O)NCCCCCC#Cc1ccc2c(c1)C=C([N+](=O)[O-])C(C(F)(F)F)O2` (centres unmarked) [Compound 26], the results for the Ki in experiment [6], in experiment [4] and in experiment [7] were 1.7 µM, 0.75 µM and 4.8 µM, respectively. In [3] (setting [10]), the IC50 is 1.19 ± 0.25 µM.
As for `NCCCCCC#Cc1ccc2c(c1)C=C([N+](=O)[O-])C(C(F)(F)F)O2` (centres unmarked) [Compound 27], the IC50 in experiment [3] (setting [10]) worked out at 12.4 ± 1.3 µM.
Same read-out and setting: next, `CC(C)(C)OC(=O)NCCCCCCC#Cc1ccc2c(c1)C=C([N+](=O)[O-])C(C(F)(F)F)O2` (centres unmarked) [Compound 28]: 10.5 ± 6.5 µM; `NCCCCCCC#Cc1ccc2c(c1)C=C([N+](=O)[O-])C(C(F)(F)F)O2` (centres unmarked) [Compound 29]: 20 ± 5.1 µM; `NCCCCCCCC#Cc1ccc2c(c1)C=C([N+](=O)[O-])C(C(F)(F)F)O2` (centres unmarked) [Compound 32]: 6.37 ± 1.82 µM.
Same read-out and setting: in the case of `CC(C)(C)OC(=O)NCCCCCCCCC#Cc1ccc2c(c1)C=C([N+](=O)[O-])C(C(F)(F)F)O2` (centres unmarked) [Compound 33] it was 45.4 ± 17.7 µM; in that of `NCCCCCCCCC#Cc1ccc2c(c1)C=C([N+](=O)[O-])C(C(F)(F)F)O2` (centres unmarked) [Compound 34], 20 ± 5.2 µM; in that of `O=C(O)CCOCCOCCOCCOCC#Cc1ccc2c(c1)C=C([N+](=O)[O-])C(C(F)(F)F)O2` (centres unmarked) [Compound 35], 63.3 ± 30 µM.
Still for that read-out and setting: next, `O=[N+]([O-])C1=Cc2cccc(C#CCCCCCCCCBr)c2OC1C(F)(F)F` (centres unmarked) [Compound 36, 8-(10-Bromodec-1-yn-1-yl)-3-nitro-2-(trifluoromethyl)-2H-chromene]: 4.79 ± 1.45 µM; `NCCCCCCCC#Cc1cccc2c1OC(C(F)(F)F)C([N+](=O)[O-])=C2` (centres unmarked) [Compound 38]: 13 ± 3.9 µM; `CC(C)(C)OC(=O)NCCCCCCCCC#Cc1cccc2c1OC(C(F)(F)F)C([N+](=O)[O-])=C2` (centres unmarked) [Compound 39]: 23.8 ± 6.8 µM.
For `NCCCCCCCCC#Cc1cccc2c1OC(C(F)(F)F)C([N+](=O)[O-])=C2` (centres unmarked) [Compound 40], the IC50 in experiment [3] (setting [10]) was 20 to 30 µM and 34.8 µM.
On to `O=C(O)CCOCCOCCOCCOCC#Cc1cccc2c1OC(C(F)(F)F)C([N+](=O)[O-])=C2` (centres unmarked) [Compound 41], for which, in experiment [3] (setting [10]), the IC50 is greater than 50 µM.
On to `O=[N+]([O-])C1=Cc2cc(F)ccc2OC1C(F)(F)F` (centres unmarked) [MRS4830, 6-fluoro-3-nitro-2-(trifluoromethyl)-2H-chromene], for which the “% survival” value was 100% in experiment [8] (0.1 µM); 102% in experiment [8] (0.5 µM); 101% in experiment [8] (1 µM); 96% in [8] (5 µM); 89% in experiment [8] (10 µM); 94% in experiment [9] (0.1 µM). The “% survival” value in experiment [9] (0.5 µM) stood at 91%; in experiment [9] (1 µM), 93%; in experiment [9] (5 µM), 87%; in [9] (10 µM), 83%.
